From paper PMC8501799, “Constitutive signal bias mediated by the human GHRHR splice variant 1” (Proceedings of the National Academy of Sciences of the …, 2021)

Tests used:
WT GHRHR = target: T1, WT GHRHR (Homo sapiens, UniProt Q02643); assay: cAMP accumulation; type: cell-based; conditions: for Emax: HEK-293T, HEK293T; for ΔLog (τ/KA): operational model, τ corrected by cell surface expression
T1 construct: Comparison of SV1 with full-length or truncated GHRHR that lacks ECD or the first 89 residues (B); expressed in transfected cells; host or cells: HEK293T
T1 sequence (Q02643 23-423): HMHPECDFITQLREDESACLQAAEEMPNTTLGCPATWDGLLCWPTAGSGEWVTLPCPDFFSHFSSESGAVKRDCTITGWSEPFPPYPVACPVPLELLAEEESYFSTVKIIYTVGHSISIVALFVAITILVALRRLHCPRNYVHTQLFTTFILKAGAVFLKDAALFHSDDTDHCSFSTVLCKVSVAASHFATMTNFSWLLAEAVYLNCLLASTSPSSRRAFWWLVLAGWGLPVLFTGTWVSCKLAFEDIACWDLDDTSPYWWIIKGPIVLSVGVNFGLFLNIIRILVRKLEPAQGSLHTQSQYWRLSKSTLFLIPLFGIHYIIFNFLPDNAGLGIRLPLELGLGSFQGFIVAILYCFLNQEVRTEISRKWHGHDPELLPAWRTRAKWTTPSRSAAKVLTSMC
Protocol: (§1) GHRH-stimulated cAMP accumulation was measured by a LANCE Ultra cAMP kit (PerkinElmer). Briefly, HEK293T cells (24 h after transfection with SV1 or GHRHR) or prostate cancer cells were digested by 0.2% (wt/vol) EDTA and washed once with Dulbecco’s phosphate-buffered saline (PBS). Cells were then resuspended with stimulation buffer (Hanks’ balanced salt solution [HBSS] supplemented with 5 mM HEPES, 0.5 mM IBMX, and 0.1% [wt/vol] bovine serum albumin [BSA], pH 7.4) to a density of 0.6 million cells per milliliter and added to 384-well white plates (3,000 cells per well). […] The reaction was stopped by adding 5 μL Eu-cAMP tracer and 5 μL ULight-anti-cAMP. After 1 h RT incubation, TR-FRET signals (excitation: 320 nm, emission: 615 and 665 nm) were measured by an Envision plate reader (PerkinElmer). cAMP concentrations were interpolated by a standard curve.
(§2) All functional study data were analyzed using Prism 7 (GraphPad) and presented as means ± SEM from at least three independent experiments. Concentration-response curves were evaluated with a three-parameter logistic equation. The significance was determined with either two-tailed Student’s t test or one-way ANOVA, and P < 0.05 is considered statistically significant.
(§3) Table S2. Effects of residue mutation or truncation in the ECD of GHRHR on GHRH-induced cAMP […]
(§4) Mutant pEC50 Emax (% WT GHRHR) expression ΔLog (τ/KA) […]
(§5) cAMP accumulation data were analyzed using a three-parameter logistic equation to determine pEC50 and Emax values. pEC50 is the negative logarithm of the molar concentration of agonist that induced half the maximal response. Emax for mutants is expressed as a percentage of the WT GHRHR. Data were analyzed by nonlinear regression using the operational model equation to determine t he logR values (logτ/KA, i.e., logarithm of the transduction ratio). τ is the effi cacy value of the agonist and was corrected by cell surface expression of the receptor. KA is dissociation constant. Changes in transduction ratio (ΔlogR) were calculated to determine the relative effectiveness of the mutants. All values are means ± S.E.M. of at le ast three ind ep en dent experiments (n = 3-5) conducted in quadruplicate. Statistical analysis was carried out by comparing the control responses in the WT GHRHR. **, P < 0.01 and ***, P < 0.001, determined by one-way […]
(§6) Table S4. Effects of residue mutation in the ligand-binding pocket of SV1 on GHRH-induced cAMP […]
(§7) Mutant pEC50 Emax Cell surface expression ΔLog (τ/KA) […]
(§8) effectiveness of the mutants. All values are means ± S.E.M. of four independent experiments (n = 4) conducted in quadruplicate. Statistical analysis was carried out by comparing the control responses in the WT-SV1. *, P < 0.05, **, P < 0.01 and ***, P < 0.001, determined by one-way

SV1 = target: T2, SV1 (Homo sapiens, UniProt Q02643); assay: cAMP accumulation; type: cell-based; conditions: mean ± SEM; for Emax: HEK-293T, HEK293T; for ΔLog (τ/KA): operational model, τ corrected by cell surface expression
T2 sequence (Q02643 90-423 limits assumed): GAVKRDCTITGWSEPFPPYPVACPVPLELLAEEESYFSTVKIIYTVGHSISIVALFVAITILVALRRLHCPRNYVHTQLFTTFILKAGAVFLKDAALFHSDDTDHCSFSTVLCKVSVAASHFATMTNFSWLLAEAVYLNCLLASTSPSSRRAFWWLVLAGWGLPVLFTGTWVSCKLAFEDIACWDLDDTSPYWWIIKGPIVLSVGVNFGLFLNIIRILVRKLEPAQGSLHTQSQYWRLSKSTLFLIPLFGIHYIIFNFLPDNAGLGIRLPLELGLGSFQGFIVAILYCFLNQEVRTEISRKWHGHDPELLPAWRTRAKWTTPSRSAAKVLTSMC
Protocol: as §1, §2, §3, §4, §5, §6, §7, §8

[1] = Table S4, n = 4 in quadruplicate

CC[C@H](C)[C@H](NC(=O)[C@H](C)NC(=O)[C@H](CC(=O)O)NC(=O)[C@H](C)NC(=O)[C@@H](N)Cc1ccc(O)cc1)C(=O)N[C@@H](Cc1ccccc1)C(=O)N[C@H](C(=O)N[C@@H](CC(N)=O)C(=O)N[C@@H](CO)C(=O)N[C@@H](Cc1ccc(O)cc1)C(=O)N[C@@H](CCCNC(=N)N)C(=O)N[C@@H](CCCCN)C(=O)N[C@H](C(=O)N[C@@H](CC(C)C)C(=O)NCC(=O)N[C@@H](CCC(N)=O)C(=O)N[C@@H](CC(C)C)C(=O)N[C@@H](CO)C(=O)N[C@@H](C)C(=O)N[C@@H](CCCNC(=N)N)C(=O)N[C@@H](CCCCN)C(=O)N[C@@H](CC(C)C)C(=O)N[C@@H](CC(C)C)C(=O)N[C@@H](CCC(N)=O)C(=O)N[C@@H](CC(=O)O)C(=O)N[C@H](C(=O)N[C@@H](CCSC)C(=O)N[C@@H](CO)C(=O)N[C@@H](CCCNC(=N)N)C(=O)N[C@@H](CCC(N)=O)C(=O)N[C@@H](CCC(N)=O)C(=O)NCC(=O)N[C@@H](CCC(=O)O)C(=O)N[C@@H](CO)C(=O)N[C@@H](CC(N)=O)C(=O)N[C@@H](CCC(N)=O)C(=O)N[C@@H](CCC(=O)O)C(=O)N[C@@H](CCCNC(=N)N)C(=O)NCC(=O)N[C@@H](C)C(=O)N[C@@H](CCCNC(=N)N)C(=O)N[C@@H](C)C(=O)N[C@@H](CCCNC(=N)N)C(=O)N[C@@H](CC(C)C)C(N)=O)[C@@H](C)CC)C(C)C)[C@@H](C)O [GHRH, growth hormone–releasing hormone]
Emax (WT GHRHR; [1]): 100% | Emax (WT GHRHR; Table S2, mean ± SEM, n = 3-5 in quadruplicate): 100 ± 1.81% | ΔLog (τ/KA) (WT GHRHR; Table S2, relative to WT GHRHR, mean ± SEM): 0 ± 0.05 | ΔLog (τ/KA) (WT GHRHR; Table S4, mean ± SEM, n = 4): 0.00 ± 0.09 | Emax (SV1; [1]): 102 ± 2.28% | Emax (SV1; Table S2, n = 3-5 in quadruplicate): 105 ± 2.2% | ΔLog (τ/KA) (SV1; Table S2, relative to WT GHRHR): -2.98 ± 0.04 | ΔLog (τ/KA) (SV1; Table S4, n = 4): -3.93 ± 0.10
